Experimental data taken from ChEMBL document CHEMBL5352419, “Design, synthesis, and biological evaluation of tetrahydroquinoline amphiphiles as membrane-targeting antimicrobials against pathogenic bacteria and fungi” (Eur J Med Chem, 2022).
Values after ≈ are worked out from the molar mass of the structure shown. Active and inactive are the calls of the source. The rule behind the calls is not given here.

Experiments:
Candida albicans [1] = experiment: Antimicrobial activity against Candida albicans ATCC10231 assessed as fungal growth inhibition incubated for 48 hrs by Sabouraud Dextrose broth based dilution assay; type: functional
Staphylococcus aureus [2] = experiment: Antimicrobial activity against methicillin-resistant Staphylococcus aureus NCTC10442 assessed as bacterial growth inhibition incubated for 24 hrs by Muller Hinton broth based dilution assay; type: functional
Escherichia coli [3] = experiment: Antimicrobial activity against Escherichia coli ATCC25922 assessed as bacterial growth inhibition incubated for 24 hrs by Muller Hinton broth based dilution assay; type: functional
Acinetobacter baumannii [4] = experiment: Antimicrobial activity against Acinetobacter baumannii ATCC17978 assessed as bacterial growth inhibition incubated for 24 hrs by Muller Hinton broth based dilution assay; type: functional
Klebsiella pneumoniae = experiment: Antimicrobial activity against Klebsiella pneumoniae ATCC10031 assessed as bacterial growth inhibition incubated for 24 hrs by Muller Hinton broth based dilution assay; type: functional
Staphylococcus aureus [5] = experiment: Antimicrobial activity against methicillin-resistant Staphylococcus aureus NCTC10442 assessed as bacterial growth inhibition incubated for 24 hrs in presence of 175.5 ug/mL K+ by Muller Hinton broth based dilution assay; type: functional
Staphylococcus aureus [6] = experiment: Antimicrobial activity against methicillin-resistant Staphylococcus aureus NCTC10442 assessed as bacterial growth inhibition incubated for 24 hrs in presence of 100 ug/mL Ca2+ by Muller Hinton broth based dilution assay; type: functional
Acinetobacter baumannii [7] = experiment: Antimicrobial activity against Acinetobacter baumannii ATCC17978 assessed as bacterial growth inhibition incubated for 24 hrs in presence of 100 ug/mL Ca2+ by Muller Hinton broth based dilution assay; type: functional
Candida albicans [8] = experiment: Antimicrobial activity against Candida albicans CMCC98001 assessed as fungal growth inhibition incubated for 48 hrs in presence of 100 ug/mL Ca2+ by Sabouraud Dextrose broth based dilution assay; type: functional
Escherichia coli [9] = experiment: Antimicrobial activity against Escherichia coli ATCC25922 assessed as bacterial growth inhibition incubated for 24 hrs in presence of 24.3 ug/mL Mg2+ by Muller Hinton broth based dilution assay; type: functional
Staphylococcus aureus [10] = experiment: Antimicrobial activity against Staphylococcus aureus ATCC29213 assessed as log reduction in microbial load at 8 times of MIC measured at 0.5 hr by time-kill kinetics assay; type: functional
Escherichia coli [11] = experiment: Antimicrobial activity against Escherichia coli ATCC25922 assessed as log reduction in microbial load at 8 times of MIC measured at 0.5 hr by time-kill kinetics assay; type: functional
Staphylococcus aureus [12] = experiment: Antimicrobial activity against Staphylococcus aureus ATCC29213 assessed as log reduction in microbial load at 4 times of MIC measured at 1 hr by time-kill kinetics assay; type: functional
Escherichia coli [13] = experiment: Antimicrobial activity against Escherichia coli ATCC25922 assessed as bacterial killing at 1 to 8 times of MIC measured upto 24 hrs by time-kill kinetics assay; type: functional, organism-based
Candida albicans [14] = experiment: Induction of drug resistance in Candida albicans ATCC10231 assessed as change in MIC at sub-inhibitory concentration incubated for 21 to 22 passages; type: functional
Cell membrane [15] = experiment: Disruption of membrane integrity in Candida albicans ATCC10231 assessed as increase in fluorescence intensity at 1 to 8 times of MIC measured for 1 hr by SYTOX green dye based fluorescence analysis
Cell membrane [16] = experiment: Disruption of membrane integrity in Staphylococcus aureus ATCC29213 assessed as red fluorescence at 8 times of MIC incubated for 2 hrs under dark condition by SYTO 9 and PI staining based laser confocal microscopy analysis
Cell membrane [17] = experiment: Disruption of outer membrane integrity in Acinetobacter baumannii ATCC17978
Staphylococcus aureus [18] = experiment: Antibiofilm activity against Staphylococcus aureus ATCC29213 assessed as inhibition of biofilm formation at 0.39 ug/mL incubated for 24 hrs by crystal violet staining based analysis relative to control; type: functional
Escherichia coli [19] = experiment: Antibiofilm activity against Escherichia coli ATCC25922 assessed as inhibition of biofilm formation at 3.125 ug/mL incubated for 24 hrs by crystal violet staining based analysis relative to control; type: functional
Escherichia coli [20] = experiment: Antibiofilm activity against Escherichia coli ATCC25922 assessed as inhibition of biofilm formation at 6.25 ug/mL incubated for 24 hrs by crystal violet staining based analysis relative to control; type: functional
Staphylococcus aureus [21] = experiment: Disruption of preformed biofilm in Staphylococcus aureus ATCC29213 assessed as residual preformed biofilm at 0.39 ug/mL incubated for 24 hrs by crystal violet staining based analysis relative to control; type: functional; conditions: dose 0.39 µg/ml
Staphylococcus aureus [22] = experiment: Disruption of preformed biofilm in Staphylococcus aureus ATCC29213 assessed as residual preformed biofilm at 0.78 ug/mL incubated for 24 hrs by crystal violet staining based analysis relative to control; type: functional; conditions: dose 0.78 µg/ml
Staphylococcus aureus [23] = experiment: Disruption of preformed biofilm in Staphylococcus aureus ATCC29213 assessed as residual preformed biofilm at 6.25 ug/mL incubated for 24 hrs by crystal violet staining based analysis relative to control; type: functional; conditions: dose 6.25 µg/ml
Staphylococcus aureus [24] = experiment: Disruption of preformed biofilm in Staphylococcus aureus ATCC29213 assessed as residual preformed biofilm at 12.5 ug/mL incubated for 24 hrs by crystal violet staining based analysis relative to control; type: functional; conditions: dose 12.5 µg/ml
Escherichia coli [25] = experiment: Disruption of preformed biofilm in Escherichia coli ATCC25922 assessed as residual preformed biofilm at 0.78 ug/mL incubated for 24 hrs by crystal violet staining based analysis relative to control; type: functional; conditions: dose 0.78 µg/ml
Escherichia coli [26] = experiment: Disruption of preformed biofilm in Escherichia coli ATCC25922 assessed as residual preformed biofilm at 25 ug/mL incubated for 24 hrs by crystal violet staining based analysis relative to control; type: functional; conditions: dose 25 µg/ml
[27] = Cytotoxicity against mouse J774.A1 cells assessed as viable cells at 3.125 ug/mL incubated for 24 hrs by CCK-8 assay relative to control; type: toxicity, cell-based; conditions: at 3.125 µg/mL, read-out: Activity
[28] = Cytotoxicity against mouse J774.A1 cells assessed as viable cells at 6.25 ug/mL incubated for 24 hrs by CCK-8 assay relative to control; type: toxicity, cell-based; conditions: at 6.25 µg/mL, read-out: Activity
[29] = Cytotoxicity against mouse J774.A1 cells assessed as viable cells at 25 ug/mL incubated for 24 hrs by CCK-8 assay relative to control; type: toxicity, cell-based; conditions: at 25 µg/mL, read-out: Activity
[30] = Cytotoxicity against mouse J774.A1 cells assessed as viable cells at 50 ug/mL incubated for 24 hrs by CCK-8 assay relative to control; type: toxicity, cell-based; conditions: at 50 µg/mL, read-out: Activity
[31] = Cytotoxicity against mouse NCTC clone 929 cells assessed as viable cells at 6.25 ug/mL incubated for 24 hrs by CCK-8 assay relative to control; type: toxicity, cell-based; conditions: NCTC clone 929 (L929) cells, at 6.25 µg/mL, read-out: Activity
[32] = Cytotoxicity against mouse NCTC clone 929 cells assessed as viable cells at 12.5 ug/mL incubated for 24 hrs by CCK-8 assay relative to control; type: toxicity, cell-based; conditions: NCTC clone 929 (L929) cells, at 12.5 µg/mL, read-out: Activity
Staphylococcus aureus [33] = experiment: In vivo antibacterial activity against Staphylococcus aureus ATCC29213 infected in cyclophosphamide immunosuppressed keratitis C57BL/6 mouse model assessed as log reduction in bacterial load at 0.5 % administered topically 4 times per day for 3 days; type: functional; conditions: time 3 day

CCCCCCCCCN1CCCc2cc(OCCCCNC(=N)N)ccc21 gave an MIC (Candida albicans [1]) of 1.56 µg/mL (≈ 4.01 µM), an MIC (Staphylococcus aureus [2]) of 1.56 µg/mL (≈ 4.01 µM) and an MIC (Escherichia coli [3]) of 1.56 µg/mL (≈ 4.01 µM). The MIC (Acinetobacter baumannii [4]) was 1.56 µg/mL (≈ 4.01 µM), the MIC (Klebsiella pneumoniae) was 1.56 µg/mL (≈ 4.01 µM) and the MIC (Staphylococcus aureus [5]) was 0.78 µg/mL. For the same molecule, the MIC (Staphylococcus aureus [6]) was 0.78 µg/mL, the MIC (Acinetobacter baumannii [7]) was 3.12 µg/mL and the MIC (Candida albicans [8]) was 1.56 µg/mL. The MIC (Escherichia coli [9]) was 1.56 µg/mL, the “log(activity)” value (Staphylococcus aureus [10]) was >3 and the “log(activity)” value (Escherichia coli [11]) was >3. The “log(activity)” value (Staphylococcus aureus [12]) was >3, the Activity (Escherichia coli [13]) was “Dose-Dependent Effect” and the Activity (Candida albicans [14]) was “inactive”. The Activity (Cell membrane [15]) was “Dose-Dependent Effect”, the Activity (Cell membrane [16]) was “Active” and the Activity (Cell membrane [17]) was “Active”. The inhibition at 0.39 µg/mL (Staphylococcus aureus [18]) was 65.2%, the inhibition at 3.125 µg/mL (Escherichia coli [19]) was 96.2% and the inhibition at 6.25 µg/mL (Escherichia coli [20]) was 100%. The Activity (Staphylococcus aureus [21]) was 81.8%, the Activity (Staphylococcus aureus [22]) was 71.31% and the Activity (Staphylococcus aureus [23]) was 4.69%. The Activity (Staphylococcus aureus [24]) was 0.3%, the Activity (Escherichia coli [25]) was 93.41% and the Activity (Escherichia coli [26]) was 1.67%. For the same molecule, the viability at 24 h, 3.125 ug/mL [27] was 98.3%, the viability at 24 h, 6.25 ug/mL [28] was 97.4% and the viability at 24 h, 25 ug/mL [29] was 72.6%. It also gave a viability at 24 h, 50 ug/mL [30] of 42.5%, a viability at 24 h, 6.25 ug/mL [31] of 92.1% and a viability at 24 h, 12.5 ug/mL [32] of 89.4%. For the same molecule, the “log(activity)” value (Staphylococcus aureus [33]) was 6.6.

For CC(C)=CCN1CCCc2cc(OCCCCCCCCNC(=N)N)ccc21, the MIC (Candida albicans [1]) was 0.78 µg/mL (≈ 2.02 µM), the MIC (Staphylococcus aureus [2]) was 0.78 µg/mL (≈ 2.02 µM) and the MIC (Escherichia coli [3]) was 3.12 µg/mL (≈ 8.08 µM). The MIC (Acinetobacter baumannii [4]) was 3.12 µg/mL (≈ 8.08 µM), the MIC (Klebsiella pneumoniae) was 3.12 µg/mL (≈ 8.08 µM) and the MIC (Staphylococcus aureus [5]) was 0.78 µg/mL. For the same molecule, the MIC (Staphylococcus aureus [6]) was 0.78 µg/mL, the MIC (Acinetobacter baumannii [7]) was 3.12 µg/mL and the MIC (Candida albicans [8]) was 1.56 µg/mL. For the same molecule, the MIC (Escherichia coli [9]) was 3.12 µg/mL, the “log(activity)” value (Staphylococcus aureus [10]) was >3 and the “log(activity)” value (Escherichia coli [11]) was >3. For the same molecule, the “log(activity)” value (Staphylococcus aureus [12]) was >3, the Activity (Escherichia coli [13]) was “Dose-Dependent Effect” and the Activity (Candida albicans [14]) was “inactive”. The Activity (Cell membrane [15]) was “Dose-Dependent Effect”, the Activity (Cell membrane [16]) was “Active” and the Activity (Cell membrane [17]) was “Active”. For the same molecule, the inhibition at 0.39 µg/mL (Staphylococcus aureus [18]) was 50.2%, the inhibition at 3.125 µg/mL (Escherichia coli [19]) was 92.8% and the inhibition at 6.25 µg/mL (Escherichia coli [20]) was 101%. It also gave an Activity (Staphylococcus aureus [21]) of 80.76%, an Activity (Staphylococcus aureus [22]) of 70.52% and an Activity (Staphylococcus aureus [23]) of 10.5%. It also gave an Activity (Staphylococcus aureus [24]) of 7.12%, an Activity (Escherichia coli [25]) of 96.08% and an Activity (Escherichia coli [26]) of 4.34%. The viability at 24 h, 3.125 ug/mL [27] was 99.5%, the viability at 24 h, 6.25 ug/mL [28] was 96.3% and the viability at 24 h, 25 ug/mL [29] was 58.8%. For the same molecule, the viability at 24 h, 50 ug/mL [30] was 31.3%, the viability at 24 h, 6.25 ug/mL [31] was 91.2% and the viability at 24 h, 12.5 ug/mL [32] was 89.3%. For the same molecule, the “log(activity)” value (Staphylococcus aureus [33]) was 6.3.
